According to patent US12724175B2, “Contact lens with optical prophylaxis” (High Performance Optics, Inc., priority 2021, dated 2026):
Like-named read-outs stand apart in the source and are kept apart here.

Legend:
[1] = Solubility studies at 500 ppm in solvent, monomers and simulated formulation
Procedure: The solubilities of exemplary compounds 8 and 9 were evaluated in various solvent systems in comparison with copper tetraphenylporphyrin (Cu-TPP) as a control.
• 1. Weigh 3 to 4 mg of the Copper porphyrin compound into an 8 mL scintillation vial • 2. In the case of one solvent or monomer, dilute to 500 ppm with the solvent or monomer, add a stir bar, and stir mixture overnight. • 3. In the case of multiple solvents, add the best solvent for the copper porphyrin first, add a stir bar and stir for 1 hour. Add the other solvents and stir overnight. • 4. Evaluate solution miscibility after stirring overnight.

[2] = Stability under simulated photocuring conditions (450 nm LED, photoinitiator); type: physicochemical
Procedure: (§1) The stabilities of exemplary compounds 8 and 9 were evaluated under various conditions in the presence of initiator and monomer under curing conditions in comparison with copper tetraphenylporphyrin (Cu-TPP) and zinc tetraphenylporphyrin (Zn-TPP) as controls.
Experimental Procedure for Photo-Curing System:
• (A) for Stability Test without Monomers • 1. Parent solution: Dimethylacetamide (DMAC) solutions (200-500 ppm) of corresponding porphyrins, namely ZnTPP (200 ppm), CuTPP (200 ppm), Cu-TBP-Am (500 ppm), and Cu-TBP-MAm (500 ppm) were prepared in amber glass vial. The solutions were allowed to stir at room temperature for about 0.5 hour to provide homogeneous solutions. Photoinitiator (0.6 wt %) was added to each solution (under yellow light), and the solution was stirred for another 1 hour. • 2. Solution “BEFORE” Thermal Treatment & UV-VIS Measurement: The solution was transferred into 100 μm quartz cell and UV-Vis spectra were recorded using Perkin Elmer Lambda 850 UV-Vis Spectrophotometer. The spectrum was regarded as “before”. • 3. Photocuring of Parent Solution: Each quartz cell was exposed to 450 nm LED light with intensity of 55 mW/cm^2 for 30 s. • 4. Solution “AFTER” photocuring & UV-VIS Measurement: UV-Vis spectra of solutions in 100 μm quartz cell exposed to LED light were recorded using Perkin Elmer Lambda 850 UV-Vis Spectrophotometer. The spectrum was regarded as “after”. • 5. % T Calculation: % Loss is expressed as % T increase at the specific wavelength of Soret band for each porphyrin solution. • (B) For Stability Test with Monomers • 1. Parent solution: Cu-TBP-Am and Cu-TBP-MAm were dissolved in DMA (30 wt %), TRIS (30 wt %) and 1-PrOH (40 wt %) in amber glass vial to afford 500 ppm porphyrin solutions. The solutions were allowed to stir at room temperature for about 0.5 hour to provide homogeneous solutions. Photoinitiator (0.6 wt %) was added to each solution (under yellow light), and the solution was stirred for another 1 hour. • 2. Solution “BEFORE” Thermal Treatment & UV-VIS Measurement: The solution was transferred into 100 μm quartz cell and UV-Vis spectra were recorded using Perkin Elmer Lambda 850 UV-Vis Spectrophotometer. The spectrum was regarded as “before”. • 3. Photocuring of Parent Solution: Each quartz cell was exposed to 450 nm LED light with intensity of 55 mW/cm^2 for 30 s. • 4. Solution “AFTER” photocuring & UV-VIS Measurement: UV-Vis spectra of solutions in 100 μm quartz cell exposed to LED light were recorded using Perkin Elmer Lambda 850 UV-Vis Spectrophotometer. The spectrum was regarded as “after”. • 5. % T Calculation: % Loss is expressed as % T increase at the specific wavelength of Soret band for each porphyrin solution. Experimental Procedure for Thermal-Curing System: • (A) for Stability Test without Monomers • 1. Parent solution: Dimethylacetamide (DMAC) solutions (500 ppm) of corresponding porphyrins, namely ZnTPP, CuTPP, Cu-TBP-Am, and Cu-TBP-MAm were prepared in amber glass vial. The solutions were allowed to stir at room temperature for about 0.5 hours to provide homogeneous solutions. Vazo 64 (0.5 wt %) was added to each solution, and the solution was stirred for another 10 minutes. Each solution was bubbled with nitrogen for 5 minutes to remove oxygen. • 2. […] The solution was transferred into 1 cm quartz cell and UV-Vis spectra were recorded using Perkin Elmer Lambda 850 UV-Vis Spectrophotometer. […]

[3] = UV-visible transmittance, molar extinction coefficient of Soret band; type: physicochemical; conditions: concentrations 300 to 1000 ppm
Procedure: ^1H-NMR spectra were recorded on Bruker 600 MHz spectrometer. CD3OD (Methanol-d3) and DMSO-d6 (Dimethyl sulfoxide-d6) were used as solvents. UPLC of porphyrins was acquired on ACQUITY UPLC H-Class PLUS UPLC with Waters PDA detector, using Phenomenex Jupiter® 5 μm C18 300 Å, LC Column (150×2.0 mm). LC-MS of porphyrins was acquired on The Thermo Scientific™ Q Exactive™ HF hybrid quadrupole-Orbitrap mass spectrometer, using Phenomenex Aeris™ 3.6 μm WIDEPORE C4 200 Å, LC Column (50×2.1 mm). UV-vis spectra were obtained on Perkin Elmer Lambda 850 UV-Vis Spectrophotometer.
(§2) Compound 8 also characterized by UV-visible transmittance at concentrations ranging from 300 to 1000 ppm (FIG. 15). Molar extinction coefficients of 490,000-544,000 M-1 cm-1 for Soret band are in agreement with literature values for similar metallated porphyrins (Taniguchi, M.; Lindsey, J. S. Photochemistry and Photobiology, 2018, 94, 290-327).
as §2, with “Compound 9” for “Compound 8”, “(FIG. 16).” for “(FIG. 15).”, “490,000-544,000 M^−1 cm^−1” for “490,000-544,000 M-1 cm-1”

[4] = Stability under simulated thermal curing conditions (Vazo 64, 80° C., 2 hours); type: physicochemical; conditions: 500 ppm, Vazo 64 0.5 wt %; for Stability under simulated thermal curing, without monomers: DMAC
Procedure: as §1
• (A) for Stability Test without Monomers • 1. Parent solution: Dimethylacetamide (DMAC) solutions (200-500 ppm) of corresponding porphyrins, namely ZnTPP (200 ppm), CuTPP (200 ppm), Cu-TBP-Am (500 ppm), and Cu-TBP-MAm (500 ppm) were prepared in amber glass vial. The solutions were allowed to stir at room temperature for about 0.5 hour to provide homogeneous solutions. Photoinitiator (0.6 wt %) was added to each solution (under yellow light), and the solution was stirred for another 1 hour. • 2. Solution “BEFORE” Thermal Treatment & UV-VIS Measurement: The solution was transferred into 100 μm quartz cell and UV-Vis spectra were recorded using Perkin Elmer Lambda 850 UV-Vis Spectrophotometer. The spectrum was regarded as “before”. • 3. […] Solution “AFTER” photocuring & UV-VIS Measurement: UV-Vis spectra of solutions in 100 μm quartz cell exposed to LED light were recorded using Perkin Elmer Lambda 850 UV-Vis Spectrophotometer. The spectrum was regarded as “after”. • 5. % T Calculation: % Loss is expressed as % T increase at the specific wavelength of Soret band for each porphyrin solution. • (B) For Stability Test with Monomers • 1. […] Solution “BEFORE” Thermal Treatment & UV-VIS Measurement: The solution was transferred into 100 μm quartz cell and UV-Vis spectra were recorded using Perkin Elmer Lambda 850 UV-Vis Spectrophotometer. […] Solution “AFTER” photocuring & UV-VIS Measurement: UV-Vis spectra of solutions in 100 μm quartz cell exposed to LED light were recorded using Perkin Elmer Lambda 850 UV-Vis Spectrophotometer. The spectrum was regarded as “after”. • 5. % T Calculation: % Loss is expressed as % T increase at the specific wavelength of Soret band for each porphyrin solution. […] The solution was transferred into 1 cm quartz cell and UV-Vis spectra were recorded using Perkin Elmer Lambda 850 UV-Vis Spectrophotometer. […]

[5] = 500 ppm, 1-Propanol, stirred overnight
[6] = 500 ppm, monomer DMA, stirred overnight
[7] = 500 ppm, monomer HEMA, stirred overnight
[8] = 500 ppm, simulated formulation 1-PrOH/DMA/TRIS (1:1:1)
[9] = 500 ppm, simulated formulation 1-PrOH/DMA/TRIS/Silicone oil (1:1:1:1)
[10] = DMAC, photoinitiator 0.6 wt %, 450 nm LED 55 mW/cm^2 for 30 s

Molecule	Solubility [1]	Stability (% T increase at Soret band) under simulated photocuring, without monomers [2]	Molar extinction coefficients for Soret band [3]	Solubility [1, 5]	Solubility [1, 6]	Solubility [1, 7]	Solubility [1, 8]	Solubility [1, 9]	Stability (% T increase at Soret band) under simulated photocuring, without monomers [2, 10]	Stability under simulated thermal curing, without monomers [4]	Stability (% T increase at Soret band) under simulated photocuring, with monomers ([2]; DMA/TRIS/1-PrOH, 500 ppm, photoinitiator 0.6 wt %, 450 nm LED 55 mW/cm^2 for 30 s)	Stability under simulated thermal curing, with monomers ([4]; DMA/TRIS/1-PrOH)
C=C(C)C(=O)NCCC[N+](C)(C)Cc1ccc(/C2=C3\C=CC(=N3)/C(c3ccc(C[N+](C)(C)CCCNC(=O)C(=C)C)cc3)=c3/cc/c4[n]3[Cu][n]3c2ccc3/C(c2ccc(C[N+](C)(C)CCCNC(=O)C(=C)C)cc2)=C2/C=CC(=N2)\C=4c2ccc(C[N+](C)(C)CCCNC(=O)C(=C)C)cc2)cc1 [Compound 8, Cu(II) tetra-(dimethylaminopropylmethacrylamidophenyl) porphine tetrabromide]	Soluble	show % T increase	490,000-544,000 M^−1 cm^−1									
copper tetraphenylporphyrin [Cu-TPP, reference compound]		significantly more stable than ZnTPP		Insoluble	Soluble	Insoluble	Insoluble	Insoluble				
C1=Cc2nc1c(-c1ccccc1)c1ccc([n-]1)c(-c1ccccc1)c1nc(c(-c3ccccc3)c3ccc([n-]3)c2-c2ccccc2)C=C1.[Zn+2] [ZnTPP, zinc tetraphenylporphyrin, reference compound]									CuTPP is significantly more stable than ZnTPP	difference is not observed		
C=CC(=O)NCCC[N+](C)(C)Cc1ccc(/C2=C3\C=CC(=N3)/C(c3ccc(C[N+](C)(C)CCCNC(=O)C=C)cc3)=c3/cc/c4[n]3[Cu][n]3c2ccc3/C(c2ccc(C[N+](C)(C)CCCNC(=O)C=C)cc2)=C2/C=CC(=N2)\C=4c2ccc(C[N+](C)(C)CCCNC(=O)C=C)cc2)cc1 [Compound 9, Cu(II) tetra-(dimethylaminopropylacrylamidophenyl) porphine tetrabromide]			490,000-544,000 M^−1 cm^−1	Soluble	Partially	Soluble	Soluble	Partially	show % T increase	much better stability	not observed	much better stability
